Results on twelve molecules are retold here after ChEMBL document CHEMBL1125884, “Synthesis and biochemical studies of 16- or 19-substituted androst-4-enes as aromatase inhibitors” (J Med Chem, 1991).

Assay [1] deals with T1, Aromatase (Homo sapiens, UniProt P11511).
T1 sequence (P11511 whole entry): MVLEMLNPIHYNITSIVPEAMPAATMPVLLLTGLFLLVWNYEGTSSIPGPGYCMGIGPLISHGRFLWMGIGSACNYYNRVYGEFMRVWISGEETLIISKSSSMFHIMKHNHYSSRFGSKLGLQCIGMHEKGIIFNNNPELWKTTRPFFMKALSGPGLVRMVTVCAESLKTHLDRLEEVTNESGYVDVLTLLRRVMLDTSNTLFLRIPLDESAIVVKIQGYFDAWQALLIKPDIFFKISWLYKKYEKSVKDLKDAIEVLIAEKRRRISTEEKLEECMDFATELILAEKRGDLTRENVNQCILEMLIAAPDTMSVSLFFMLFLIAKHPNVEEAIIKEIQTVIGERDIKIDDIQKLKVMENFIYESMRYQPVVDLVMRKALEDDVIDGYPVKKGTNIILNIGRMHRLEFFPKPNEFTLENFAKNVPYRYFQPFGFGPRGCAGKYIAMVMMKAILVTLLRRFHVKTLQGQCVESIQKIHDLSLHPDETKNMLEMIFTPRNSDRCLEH
The experiment in a line: Binding affinity for human placental microsome cytochrome P450 19A1 with 1 uM [1-beta-3H]-androstenedione.

For assay [2], the target named is T1, Aromatase.
Description: Inhibition of 1 uM [1-beta-3H]-androstenedione binding to human placental microsome Cytochrome P450 19A1

On to `CC12CCC3C(CCC4=CCCCC43C)C1C[C@H](Br)C2=O` (some centres undefined), for which, on Aromatase [1], the affinity, expressed as Ki, was 455 nM. In addition, at Aromatase [2], the IC50 (usually the midpoint of a concentration-inhibition curve) worked out at 5.9 µM.

Molecule `C[C@]12CC[C@H]3[C@@H](CCC4=CCCC[C@@]43C(F)F)[C@@H]1CC[C@@H]2O` yielded an IC50 on Aromatase [2] of 26 µM.

`CC12CCC3C(CCC4=CCCCC43C)C1C[C@@H](Br)C2=O` (some centres undefined): the Ki (commonly a measure of affinity in units of concentration, obtained from inhibition or displacement) on Aromatase [1] turned out to be 228 nM. On Aromatase [2], this molecule returned an IC50 of 4.1 µM.

Consider `CC12CCC3C(CCC4=CCCCC43C(F)F)C1CCC2=O` (centres undefined), for which the affinity at Aromatase [1] corresponds to a Ki of 443 nM. For the same molecule, on Aromatase [2], the IC50 is 1.2 µM.

As to `CC(=O)OCC12CCCC=C1CCC1C2CCC2(C)C(O)CCC12` (centres undefined), the IC50 on Aromatase [2] amounted to 44 µM.

`C#CC(O)C12CCCC=C1CCC1C3CCC(=O)C3(C)CCC12` (centres undefined): the Ki on Aromatase [1] was 7750 nM. In addition, the midpoint of inhibition against Aromatase [2], the IC50, lay at 62 µM.

`C[C@]12CC[C@H]3[C@@H](CCC4=CCCC[C@@]43CO)[C@@H]1CCC2=O`: the inhibition constant Ki on Aromatase [1] stood at 13 nM. The molecule also displayed an IC50 at Aromatase [2] of 0.27 µM.

`CC12CCCC=C1CCC1C2CCC2(C)C(O)CCC12` (centres undefined): the Ki at Aromatase [1] was determined as 830 nM. The molecule also came in with an IC50 on Aromatase [2] of 7.3 µM.

On to `CC(=O)OC1CCC2C3CCC4=CCCCC4(CO)C3CCC12C` (centres undefined), for which the IC50 at Aromatase [2] was 100 µM.

Take `C[C@]12CCC(=O)C(O)=C1CC[C@@H]1[C@@H]2CC[C@]2(C)C(=O)CC[C@@H]12` [FORMESTANE]: the IC50 against Aromatase [2] came to 0.41 µM.

At Aromatase [2], `CC(=O)OCC12CCCC=C1CCC1C2CCC2(C)C(OC(C)=O)CCC12` (centres undefined) showed an IC50 of 38 µM.

Take `CC12CCC3C(CCC4=CCCCC43CO)C1CCC2O` (centres undefined): at Aromatase [1], the Ki stood at 170 nM. The IC50 against Aromatase [2] was 2.3 µM.
